For one series, the system named is MCF7. Put plainly: Antiproliferative activity against human MCF7 cells measured after 72 hrs. The settings on record: MCF7, 72 h. It counts as functional, cell-based.
The next series addresses Histone deacetylase 2 (Homo sapiens, UniProt Q92769). Put plainly: Inhibition of HDAC2 (unknown origin).
The species named for series [1] is Homo sapiens. Put plainly: Selectivity ratio of IC50 for HDAC6 (unknown origin) to IC50 for HDAC3 (unknown origin).
Series [2] has as its system HCT-116. Put plainly: Induction of apoptosis in human HCT-116 cells assessed as apoptotic cells at 200 nM measured after 48 hrs by Annexin-FITC/propidium iodide staining based flow cytometry relative to control. It is filed as functional. On the technique in general: A flow cytometer gives signals particle by particle.
Series [3] is filed under the species Homo sapiens. Put plainly: Selectivity ratio of IC50 for HDAC6 (unknown origin) to IC50 for HDAC1 (unknown origin).
Series [4] has as its system HCT-116. In words: Induction of apoptosis in human HCT-116 cells assessed as chromatin condensation measured after 48 hrs by Hoechst 33342 staining based assay. It is filed as functional, cell-based. To be noted: dose 50-200 nM, DDE = dose-dependent effect.
The next series concerns A549. In words: Antiproliferative activity against human A549 cells measured after 72 hrs. It counts as functional, cell-based. The settings on record: A549, 72 h.
Series [5] relates to HCT-116. In words: Inhibition of colony formation in human HCT-116 cells. It counts as functional, cell-based. To be noted: dose 50-200 nM, DDE = dose-dependent effect.
For another series, the target named is Histone deacetylase 3 (Homo sapiens, UniProt O15379). Put plainly: Inhibition of HDAC3 (unknown origin).
Histone deacetylase 3, sequence (O15379 whole entry): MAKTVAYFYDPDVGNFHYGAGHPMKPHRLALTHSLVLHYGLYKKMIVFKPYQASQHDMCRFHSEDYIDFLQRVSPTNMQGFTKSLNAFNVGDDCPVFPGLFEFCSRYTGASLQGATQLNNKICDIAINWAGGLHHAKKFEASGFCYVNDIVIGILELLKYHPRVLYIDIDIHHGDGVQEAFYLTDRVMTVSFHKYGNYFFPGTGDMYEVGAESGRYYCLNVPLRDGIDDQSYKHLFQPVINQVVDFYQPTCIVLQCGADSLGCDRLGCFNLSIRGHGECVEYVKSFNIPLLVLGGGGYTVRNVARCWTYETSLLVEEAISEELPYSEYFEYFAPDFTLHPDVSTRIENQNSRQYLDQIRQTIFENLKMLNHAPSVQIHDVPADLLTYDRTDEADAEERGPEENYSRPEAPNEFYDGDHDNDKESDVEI
The target of series [6] is T1, Histone deacetylase 1/2/3 (Homo sapiens) (UniProt Q13547+O15379+Q92769). In words: Inhibition of HDAC1/HDAC2/HDAC3 in human HCT-116 cells assessed as increase in accumulation of acetylated histone H4 measured after 48 hrs by Western blot analysis. The settings on record: dose 200-800 nM, DDE = dose-dependent effect. It is filed as cell-based.
The next series has as its target Histone deacetylase 1 (Homo sapiens, UniProt Q13547). Put plainly: Inhibition of HDAC1 (unknown origin).
For series [7], the target named is T2, Protein deacetylase HDAC6 (Homo sapiens, UniProt Q9UBN7).
T2 sequence (Q9UBN7 whole entry): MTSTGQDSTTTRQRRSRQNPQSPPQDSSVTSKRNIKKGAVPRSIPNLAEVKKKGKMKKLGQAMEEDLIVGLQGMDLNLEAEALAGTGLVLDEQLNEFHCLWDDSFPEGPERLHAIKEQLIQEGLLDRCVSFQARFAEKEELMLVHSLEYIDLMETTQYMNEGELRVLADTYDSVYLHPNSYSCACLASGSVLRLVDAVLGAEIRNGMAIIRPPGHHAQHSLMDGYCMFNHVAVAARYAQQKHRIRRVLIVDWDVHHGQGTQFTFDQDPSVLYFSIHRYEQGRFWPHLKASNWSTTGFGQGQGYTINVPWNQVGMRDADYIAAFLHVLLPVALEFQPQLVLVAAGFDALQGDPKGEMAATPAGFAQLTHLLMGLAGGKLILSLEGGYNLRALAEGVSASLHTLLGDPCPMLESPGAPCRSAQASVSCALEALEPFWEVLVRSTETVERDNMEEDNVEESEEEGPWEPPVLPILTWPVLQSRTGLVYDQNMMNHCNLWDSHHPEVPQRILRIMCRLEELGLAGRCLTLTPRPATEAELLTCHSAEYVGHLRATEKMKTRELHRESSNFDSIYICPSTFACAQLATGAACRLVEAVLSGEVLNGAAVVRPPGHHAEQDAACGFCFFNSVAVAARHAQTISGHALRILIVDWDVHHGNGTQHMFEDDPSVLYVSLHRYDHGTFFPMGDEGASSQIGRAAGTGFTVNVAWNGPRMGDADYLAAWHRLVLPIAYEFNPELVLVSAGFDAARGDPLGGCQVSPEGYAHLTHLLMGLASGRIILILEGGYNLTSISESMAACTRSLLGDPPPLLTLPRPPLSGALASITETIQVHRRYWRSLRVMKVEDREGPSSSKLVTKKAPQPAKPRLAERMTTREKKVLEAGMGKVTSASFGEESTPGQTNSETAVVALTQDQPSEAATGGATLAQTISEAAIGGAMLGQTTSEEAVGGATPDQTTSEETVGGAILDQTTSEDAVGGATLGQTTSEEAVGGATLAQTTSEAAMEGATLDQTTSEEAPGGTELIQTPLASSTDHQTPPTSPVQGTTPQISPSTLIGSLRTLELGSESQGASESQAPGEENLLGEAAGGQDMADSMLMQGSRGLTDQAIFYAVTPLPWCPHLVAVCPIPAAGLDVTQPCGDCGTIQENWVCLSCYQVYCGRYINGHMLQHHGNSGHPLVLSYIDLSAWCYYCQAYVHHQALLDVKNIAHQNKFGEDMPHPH
In words: Inhibition of HDAC6 (unknown origin).

The test system of series [8] is HCT-116. Put plainly: Antimigratory activity against human HCT-116 cells at 25 nM measured after 48 hrs by wound healing assay. It is filed as functional, cell-based.
The subject of series [9] is HCT-116. Put plainly: Induction of apoptosis in human HCT-116 cells assessed as apoptotic cells at 100 nM measured after 48 hrs by Annexin-FITC/propidium iodide staining based flow cytometry relative to control. It counts as functional.
The nature of series [10]: Selectivity index, ratio of IC50 for human L02 cells to IC50 for human A549 cells. It counts as toxicity. The settings on record: L02 cells and A549 cells, read-out: Ratio IC50.
In a further series the target is T3, Histone deacetylase 8 (Homo sapiens, UniProt Q9BY41).
T3 sequence (Q9BY41 whole entry): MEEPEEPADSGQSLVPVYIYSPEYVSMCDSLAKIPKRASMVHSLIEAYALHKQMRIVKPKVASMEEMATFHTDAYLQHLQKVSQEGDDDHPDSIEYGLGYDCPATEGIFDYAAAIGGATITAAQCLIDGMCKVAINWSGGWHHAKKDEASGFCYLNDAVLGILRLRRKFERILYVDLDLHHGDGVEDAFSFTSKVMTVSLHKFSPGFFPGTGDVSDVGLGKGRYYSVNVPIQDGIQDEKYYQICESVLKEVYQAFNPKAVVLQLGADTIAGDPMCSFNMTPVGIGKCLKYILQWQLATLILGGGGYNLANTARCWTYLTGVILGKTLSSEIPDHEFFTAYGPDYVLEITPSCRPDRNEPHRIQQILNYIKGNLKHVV
Put plainly: Inhibition of HDAC8 (unknown origin).

Series [11] concerns HCT-116. In words: Induction of apoptosis in human HCT-116 cells measured after 48 hrs by Annexin-FITC/propidium iodide staining based flow cytometry. It is filed as functional, cell-based. To be noted: dose 50-200 nM, DDE = dose-dependent effect.
Series [12] in a line: Cytotoxicity against human L02 cells measured after 72 hrs.
The target in series [13] is T1, Histone deacetylase 1/2/3 (Homo sapiens). In words: Inhibition of HDAC1/HDAC2/HDAC3 in human HCT-116 cells assessed as increase in accumulation of acetylated histone H3 measured after 48 hrs by Western blot analysis. To be noted: dose 200-800 nM, DDE = dose-dependent effect. It is filed as cell-based. (A western blot detects proteins with antibodies after separation by electrophoresis.)

The species named for series [14] is Homo sapiens. In words: Selectivity ratio of IC50 for HDAC6 (unknown origin) to IC50 for HDAC2 (unknown origin).
Series [15] relates to HCT-116. Put plainly: Cell cycle arrest in human HCT-116 cells assessed as increase in accumulation at G2/M phase measured after 48 hrs by propidium iodide staining based flow cytometry. It is filed as functional. To be noted: dose 50-200 nM, DDE = dose-dependent effect.
The test system of the next series is SW480. Put plainly: Antiproliferative activity against human SW480 cells measured after 72 hrs. The settings on record: SW480, 72 h. It is filed as functional, cell-based.
For series [16], the system named is HCT-116. Put plainly: Induction of apoptosis in human HCT-116 cells assessed as appearance of smaller nuclei measured after 48 hrs by Hoechst 33342 staining based assay. To be noted: dose 50-200 nM, DDE = dose-dependent effect. It counts as functional, cell-based.
Series [17] concerns HCT-116. In words: Antiproliferative activity against human HCT-116 cells measured after 72 hrs. It is filed as functional, cell-based. The settings on record: HCT-116, 72 h.

Activity calls are given as the source filed them. The calls are words filed in the database; no cut-off is given here.

Histone deacetylase 2, sequence (Q92769 whole entry): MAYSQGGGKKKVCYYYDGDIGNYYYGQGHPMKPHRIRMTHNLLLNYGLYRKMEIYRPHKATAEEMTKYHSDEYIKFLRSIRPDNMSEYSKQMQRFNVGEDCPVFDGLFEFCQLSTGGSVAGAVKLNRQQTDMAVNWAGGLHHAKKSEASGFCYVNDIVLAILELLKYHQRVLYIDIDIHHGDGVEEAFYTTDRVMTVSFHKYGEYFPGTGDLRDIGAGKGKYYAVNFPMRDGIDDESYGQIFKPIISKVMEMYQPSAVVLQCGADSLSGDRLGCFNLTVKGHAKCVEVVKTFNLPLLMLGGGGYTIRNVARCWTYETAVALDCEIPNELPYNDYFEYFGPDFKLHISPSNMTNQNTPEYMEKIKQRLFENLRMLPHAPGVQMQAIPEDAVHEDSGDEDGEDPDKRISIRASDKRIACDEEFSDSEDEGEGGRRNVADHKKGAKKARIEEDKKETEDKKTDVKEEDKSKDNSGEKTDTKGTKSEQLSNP
Histone deacetylase 1, sequence (Q13547 whole entry): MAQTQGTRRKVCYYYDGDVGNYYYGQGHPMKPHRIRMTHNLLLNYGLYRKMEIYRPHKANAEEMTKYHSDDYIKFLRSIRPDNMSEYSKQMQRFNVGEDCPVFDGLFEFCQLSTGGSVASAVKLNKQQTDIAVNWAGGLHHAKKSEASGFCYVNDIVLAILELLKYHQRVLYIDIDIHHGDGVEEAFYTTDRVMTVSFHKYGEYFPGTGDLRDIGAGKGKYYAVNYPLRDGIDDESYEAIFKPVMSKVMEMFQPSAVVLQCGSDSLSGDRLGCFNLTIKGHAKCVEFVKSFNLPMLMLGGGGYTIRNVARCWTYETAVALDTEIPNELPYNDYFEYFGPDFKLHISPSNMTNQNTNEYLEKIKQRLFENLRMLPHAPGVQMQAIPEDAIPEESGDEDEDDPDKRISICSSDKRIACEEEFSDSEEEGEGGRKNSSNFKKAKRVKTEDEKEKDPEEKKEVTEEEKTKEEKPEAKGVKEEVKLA

Take `Cc1[nH]c2ccccc2c1C1=CCC(NCc2ccc(OCC(=O)NO)cc2F)CC1` (centres undefined): the IC50 in the series on MCF7 was found to be 0.912 µM; at Histone deacetylase 2, 0.0019 µM; in the series on A549, 0.13 µM; on Histone deacetylase 3, 0.0038 µM; against Histone deacetylase 1, 0.0016 µM; in series [7], 0.013 µM. Further, the IC50 on Histone deacetylase 8 was determined as 0.086 µM; in the series with SW480, 0.17 µM; in the series on HCT-116 [17] it was 0.099 µM. Besides, the Ratio IC50 in the series filed under Homo sapiens [1], in the series filed under Homo sapiens [3] and in the series filed under Homo sapiens [14] was 3 each time. In addition, the Activity in the series with HCT-116 [2] is 91.5%; with HCT-116 [4] it was “Dde”; in the series on HCT-116 [9], 81.8%; with HCT-116 [11], “Dde”; in the series with HCT-116 [15] it was “Dde”; in the series on HCT-116 [16], “Dde”. Moreover, the inhibition entry (in the series with HCT-116 [5]; in series [6]; in [13]) was “Dde” each time. Besides, the result in the series with HCT-116 [8] was Active. The selectivity ratio in [10] is 20. Further, inhibition in [12] was half-maximal at 2.3 µM (IC50 at 72 h).

For orientation: IC50 means the concentration that inhibits the measured activity by half. The low end stands for greater potency, the high end for weaker potency.

The values above are taken from ChEMBL document CHEMBL5113441, “Exploration of 4-(1H-indol-3-yl)cyclohex-3-en-1-amine analogues as HDAC inhibitors: Design, synthesis, biological evaluation and modelling studies” (Bioorg Med Chem Lett, 2022).
